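96-well plates; 48 h exposure; 5 concentrations. Endpoints by linear interpolation between flanking doses. Not reached: highest tested concentration assigned. GI50 marks 50% less growth. TGI marks complete inhibition of growth.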

Some test systems named below: CCRF-CEM leukemia; COLO 205 colon; NCI-H226 lung; SF-268 CNS; SK-OV-3 ovarian; SNB-75 CNS; U251 CNS; PC-3 prostate.
Common to all, as to test: DTP human tumour cell line panel, 48 h

On to `O=C(Nc1ccccc1)N1CCN(C(=O)Nc2ccccc2)C1=S`, for which the TGI (in general, the concentration at which net growth stops) with CCRF-CEM leukemia is over 100 µM; in the assay with COLO 205 colon it was over 100 µM; in the assay with NCI-H226 lung, 70.5 µM; in the assay on SF-268 CNS, 47.8 µM; with SK-OV-3 ovarian, 76.3 µM; in the assay on SNB-75 CNS, 47.2 µM. For the same compound, in the assay on U251 CNS, the TGI was over 100 µM.

With `COC1/C=C/C(C)C(O)CC(O)/C=C/C(C)C(C(C)C(OC)C(C)CCC(=O)C(C)C(C/C=C/N(C)C=O)OC)OC(=O)/C=C/C=C(\C)CC(OC)CC2=CC(=O)O[C@@H](C(C)C(OC)C1)[C@H]2O` (stereo partly specified), the TGI in the assay on CCRF-CEM leukemia was determined as 2.98 µM; in the assay on COLO 205 colon, 0.0885 µM; in the assay with PC-3 prostate, 0.131 µM; in the assay with SF-268 CNS, 0.137 µM; in the assay on SK-OV-3 ovarian, 0.108 µM; in the assay on SNB-75 CNS, 0.00586 µM. In the assay with U251 CNS, this compound returned a TGI of 0.102 µM.

Regarding `Nc1c(C(=O)c2ccc(Cl)c(Cl)c2)[nH]c(NCc2ccccc2)c1C(=S)Nc1ccccc1`, the TGI came out at 3.79 µM in the assay with COLO 205 colon; 31.4 µM in the assay with NCI-H226 lung; 30.5 µM with PC-3 prostate; 31.5 µM with SF-268 CNS; 32.2 µM with SK-OV-3 ovarian; 24.1 µM with SNB-75 CNS. The compound further yielded a TGI in the assay on U251 CNS of 15.7 µM.

With `COC(=O)C1=C(CCCCO[Si](C)(C)C(C)(C)C)NC(=O)N2[C@H](CCOCc3ccccc3)CC[C@@H]12`, the TGI in the assay on COLO 205 colon, in the assay with NCI-H226 lung, in the assay on PC-3 prostate, with SF-268 CNS, in the assay on SK-OV-3 ovarian and with SNB-75 CNS was over 100 µM in each case. The TGI with U251 CNS is over 100 µM.

As for `CC1=C(C)C(=O)C(C2=CC(=O)c3ccccc3C2=O)=C(C2=CC(=O)c3ccccc3C2=O)C1=O`, the TGI in the assay on COLO 205 colon was 9.77 µM; with NCI-H226 lung it was 49.5 µM; in the assay on PC-3 prostate, 21.7 µM; in the assay on SF-268 CNS it was over 55.1 µM; with SK-OV-3 ovarian it was 45.8 µM; with SNB-75 CNS, 31.5 µM. For the same compound, in the assay with U251 CNS, the TGI is over 45.3 µM.

Take `O=C1c2cc3c(cc2-c2c1c1cc(F)c(F)cc1c(=O)n2CCCn1ccnc1)OCO3`: the GI50 (commonly the concentration at which growth is held to half of that of the control) with CCRF-CEM leukemia was under 0.01 µM; in the assay on COLO 205 colon it was 0.0293 µM; in the assay on NCI-H226 lung, 0.0248 µM; in the assay with PC-3 prostate, 0.124 µM; with SF-268 CNS it was under 0.01 µM; in the assay on SNB-75 CNS it was under 0.01 µM. The GI50 with U251 CNS was under 0.01 µM. The TGI in the assay on CCRF-CEM leukemia is over 100 µM; with COLO 205 colon, 1.62 µM; in the assay with NCI-H226 lung, 0.115 µM; in the assay with PC-3 prostate, over 100 µM; in the assay on SF-268 CNS it was over 100 µM; with SNB-75 CNS, 0.11 µM. Further, the TGI with U251 CNS came to 10.2 µM.

Consider `O=c1[nH]c(=O)n(COC(CO)CO)cc1-c1ccccc1`, for which the TGI with CCRF-CEM leukemia, in the assay with COLO 205 colon, with PC-3 prostate, with SF-268 CNS, with SK-OV-3 ovarian and with SNB-75 CNS was over 100 µM each time. The compound also came in with a TGI in the assay with U251 CNS of over 100 µM.

As to `O=c1c2cc(Br)cc(Br)c2[nH]c(=S)n1-c1ccc(N=Nc2ccc(O)c3cccnc23)cc1`, the TGI in the assay on COLO 205 colon is over 100 µM; in the assay with NCI-H226 lung, over 100 µM; with PC-3 prostate it was over 100 µM; in the assay on SF-268 CNS it was 57.5 µM; in the assay with SK-OV-3 ovarian, over 100 µM; in the assay with SNB-75 CNS it was over 100 µM. In addition, the TGI in the assay with U251 CNS stood at 62.3 µM.

As for `CCN1CC2(C)CCC(OC)C34C5CC6CCC(O)(C5C(=O)O6)C(C(O)C23)C14` (stereo unspecified), the total growth inhibition concentration (TGI) with CCRF-CEM leukemia, in the assay with COLO 205 colon, in the assay on PC-3 prostate, with SF-268 CNS, with SK-OV-3 ovarian and with SNB-75 CNS was over 100 µM throughout. Moreover, the total growth inhibition concentration (TGI) in the assay with U251 CNS was over 100 µM.

Regarding `COc1cc2c(/C=C3/C(=O)Nc4ccccc43)c(Cl)n(Cc3ccc(Cl)cc3)c2cc1C`, the TGI in the assay on COLO 205 colon amounted to 0.665 µM; with NCI-H226 lung it was 1.79 µM; in the assay with PC-3 prostate, 16.5 µM; in the assay with SF-268 CNS, 21.3 µM; in the assay with SK-OV-3 ovarian, 2.85 µM; with SNB-75 CNS it was 0.898 µM. The compound also returned a TGI with U251 CNS of 1.23 µM.

Consider `C[C@H]1S[C@@H](c2ccc(Cl)cc2Cl)N(NC(=O)c2ccncc2)C1=O`, for which the TGI in the assay with CCRF-CEM leukemia, in the assay with COLO 205 colon, in the assay with NCI-H226 lung, in the assay with PC-3 prostate, in the assay on SK-OV-3 ovarian and in the assay with SNB-75 CNS was over 100 µM in each case. In the assay with U251 CNS, the TGI is over 100 µM.

For the compound `CSC(SC)=C(C(=O)c1ccc(Cl)cc1)n1c(=O)sc2cc(Br)ccc21`, the TGI in the assay with CCRF-CEM leukemia, in the assay on COLO 205 colon, in the assay on NCI-H226 lung, with PC-3 prostate, in the assay on SF-268 CNS and with SK-OV-3 ovarian was over 100 µM each time. For the same compound, the TGI in the assay with U251 CNS was over 100 µM.

As for `CC1OC(OC2C(O[C@H]3CC[C@@]4(C)C(=CC[C@H]5[C@@H]6C[C@@H]7O[C@]8(CC[C@@H](C)CO8)[C@@H](C)[C@@H]7[C@@]6(C)CC[C@@H]54)C3)OC(CO)C(O)C2OC2OC(CO)C(O)C(O)C2O)C(O)C(O)C1O` (stereo partly specified), the TGI in the assay with CCRF-CEM leukemia was over 100 µM; in the assay with COLO 205 colon it was 3.41 µM; in the assay on PC-3 prostate it was 3.55 µM; in the assay on SF-268 CNS, 3.7 µM; with SK-OV-3 ovarian it was 3.19 µM; with SNB-75 CNS it was 3.7 µM.

On to `COc1cc2c[n+]3c4c(c2c(OC)c1OC)CCCC4CC3` (stereo unspecified), for which the TGI with CCRF-CEM leukemia, with COLO 205 colon, in the assay on PC-3 prostate, in the assay with SK-OV-3 ovarian and in the assay with U251 CNS was over 100 µM in each case.

As to `COC(=O)c1sc(=O)sc1SCc1cccc(CSc2sc(=O)sc2C(=O)OC)c1`, the TGI with CCRF-CEM leukemia is over 100 µM; in the assay with COLO 205 colon it was over 100 µM; in the assay with NCI-H226 lung, over 100 µM; with PC-3 prostate, over 100 µM; with SF-268 CNS it was 86.1 µM; in the assay with SK-OV-3 ovarian it was 51.4 µM. This compound also had a TGI in the assay with U251 CNS of 34.3 µM.

Take `Clc1ccc2c(c1)N(CCCN1CCCC13CCCCC3)c1ccccc1S2`: the TGI in the assay on CCRF-CEM leukemia is 28.3 µM; in the assay on COLO 205 colon, over 54.9 µM; in the assay on NCI-H226 lung, over 86.5 µM; in the assay on PC-3 prostate it was 20.6 µM; in the assay with SF-268 CNS, over 58.7 µM; with SK-OV-3 ovarian, 57.7 µM. This compound gave a TGI with U251 CNS of 23.6 µM.

With `CC(=O)n1[nH]c(=O)n(-c2ccc(Cl)cc2)c1=O`, the TGI in the assay on CCRF-CEM leukemia, with COLO 205 colon, with NCI-H226 lung, in the assay on PC-3 prostate, in the assay on SF-268 CNS and in the assay with SK-OV-3 ovarian was over 100 µM each time. The TGI with U251 CNS was over 100 µM.

Turning to `O=C(O)CSC(CC(=O)c1ccc(Cl)cc1)c1ccc(Cl)cc1` (stereo unspecified), the concentration for total growth inhibition (TGI) was 36.3 µM in the assay with CCRF-CEM leukemia; over 100 µM in the assay with COLO 205 colon; over 100 µM with PC-3 prostate; 79 µM with SF-268 CNS; 97.9 µM in the assay with SK-OV-3 ovarian; over 100 µM in the assay on SNB-75 CNS. Also, the TGI in the assay on U251 CNS is over 100 µM.

`COc1ccc(-c2ccc(C(=O)C=P(c3ccccc3)(c3ccccc3)c3ccccc3)cc2)cc1`: the TGI in the assay on CCRF-CEM leukemia was over 100 µM; with COLO 205 colon, 13.9 µM; with NCI-H226 lung, 27.7 µM; in the assay with PC-3 prostate, 49 µM; with SF-268 CNS, 71.4 µM; in the assay with SK-OV-3 ovarian it was 34.9 µM. In the assay with U251 CNS, this compound returned a TGI of 31.9 µM.

As to `CCC1(O)CC(CCN(Cc2ccccc2)C(=O)OCc2ccccc2)C(OCc2ccccc2)C1O` (stereo unspecified), the TGI was 81.7 µM with CCRF-CEM leukemia; 34.2 µM with COLO 205 colon; 25.3 µM in the assay on NCI-H226 lung; 23.2 µM in the assay on PC-3 prostate; 34.6 µM in the assay with SK-OV-3 ovarian; 25.7 µM in the assay on SNB-75 CNS. For the same compound, the TGI with U251 CNS was over 100 µM.

As to `CCOC(=O)c1c(N)sc2c1C(C(=O)OCC)CCCC2` (stereo unspecified), the TGI in the assay on COLO 205 colon, with NCI-H226 lung, in the assay on PC-3 prostate, in the assay on SNB-75 CNS and with U251 CNS was over 100 µM in each case.

For the compound `COc1ccc(N2C(=O)C3c4[nH]c5c(C)cccc5c4C4CCC(C(C)C)CC4C3C2=O)cc1` (stereo unspecified), the total growth inhibition concentration (TGI) is over 100 µM with COLO 205 colon; 36.1 µM with NCI-H226 lung; 25.2 µM in the assay with PC-3 prostate; 22 µM in the assay on SF-268 CNS; 47.7 µM in the assay with SK-OV-3 ovarian; 9.4 µM with SNB-75 CNS. This compound showed a TGI in the assay with U251 CNS of 29.9 µM.

For `CCc1nc(N)c2nc(-c3cccs3)oc2n1`, the TGI with CCRF-CEM leukemia, with COLO 205 colon, with NCI-H226 lung, with PC-3 prostate, with SF-268 CNS and with SNB-75 CNS was over 100 µM throughout. Further, the TGI in the assay on U251 CNS was over 100 µM.

For `N[C@@H](CCC(=O)NC(Cc1ccccc1)C(=O)NCP(=O)(O)O)C(=O)O` (stereo partly specified), the TGI in the assay with COLO 205 colon, in the assay on PC-3 prostate and in the assay with U251 CNS was over 100 µM in each case.

For the compound `O=C(O)c1c(CC(Cc2ccc3c(c2)CCC3)C(=O)O)ccc2c1CCC2` (stereo unspecified), the TGI in the assay with CCRF-CEM leukemia, in the assay on COLO 205 colon, in the assay on NCI-H226 lung, with PC-3 prostate and in the assay on U251 CNS was over 100 µM throughout.
